# Measurements reported in US12624044B2, “SMARCA degraders and uses thereof” (Kymera Therapeutics, Inc., priority 2019, dated 2026).
# Key:
# SMARCA2 = SMARCA2 (Homo sapiens, UniProt P51531); experiment: MSD SMARCA2 degradation in A549 cell line; type: cell-based; settings: 24 h; for Dmax: A549, A549 cells; for DC50: A549 cells, read-out: SMARCA2 MSD A549 degradation 24 h: Average external-Abs DC50
# Procedure, shortened: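 A549 cells treated 24 h with compound at final 0.152-1000 nM (3-fold series, DMSO control). Lysates analyzed by MSD immunoassay using anti-SMARCA2/BRM detection and SULFO-TAG secondary antibodies; maximal degradation (Dmax %) reported as letter bins.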
# SMARCA4 = biological target: T1, SMARCA4 (Homo sapiens, UniProt P51532); experiment: SMARCA4 Western blot MV4-11 degradation; type: cell-based; settings: 24 h; for Dmax: MV4-11, MV4-11 cells, read-out: SMARCA4 WB MV411 degradation 24 h: Average Dmax %; for DC50: MV4-11 cells, read-out: SMARCA4 WB MV411 degradation 24 h: Average external-Abs DC50
# T1 construct: SMARCA2 and SMARCA4 protein degradation in MV4-11 cells; endogenous in cells; host or cells: MV4-11
# Procedure, shortened: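 MV4-11 cells treated with compound for 24 h, lysed in RIPA with protease/phosphatase inhibitors, and SMARCA2 and SMARCA4 (BRG1) levels assessed by Western blot with β-actin loading control and LI-COR fluorescent read-out. Maximal degradation (Dmax %) after 24 h binned into letter codes.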
# SMARCA2, sequence (P51531 whole entry): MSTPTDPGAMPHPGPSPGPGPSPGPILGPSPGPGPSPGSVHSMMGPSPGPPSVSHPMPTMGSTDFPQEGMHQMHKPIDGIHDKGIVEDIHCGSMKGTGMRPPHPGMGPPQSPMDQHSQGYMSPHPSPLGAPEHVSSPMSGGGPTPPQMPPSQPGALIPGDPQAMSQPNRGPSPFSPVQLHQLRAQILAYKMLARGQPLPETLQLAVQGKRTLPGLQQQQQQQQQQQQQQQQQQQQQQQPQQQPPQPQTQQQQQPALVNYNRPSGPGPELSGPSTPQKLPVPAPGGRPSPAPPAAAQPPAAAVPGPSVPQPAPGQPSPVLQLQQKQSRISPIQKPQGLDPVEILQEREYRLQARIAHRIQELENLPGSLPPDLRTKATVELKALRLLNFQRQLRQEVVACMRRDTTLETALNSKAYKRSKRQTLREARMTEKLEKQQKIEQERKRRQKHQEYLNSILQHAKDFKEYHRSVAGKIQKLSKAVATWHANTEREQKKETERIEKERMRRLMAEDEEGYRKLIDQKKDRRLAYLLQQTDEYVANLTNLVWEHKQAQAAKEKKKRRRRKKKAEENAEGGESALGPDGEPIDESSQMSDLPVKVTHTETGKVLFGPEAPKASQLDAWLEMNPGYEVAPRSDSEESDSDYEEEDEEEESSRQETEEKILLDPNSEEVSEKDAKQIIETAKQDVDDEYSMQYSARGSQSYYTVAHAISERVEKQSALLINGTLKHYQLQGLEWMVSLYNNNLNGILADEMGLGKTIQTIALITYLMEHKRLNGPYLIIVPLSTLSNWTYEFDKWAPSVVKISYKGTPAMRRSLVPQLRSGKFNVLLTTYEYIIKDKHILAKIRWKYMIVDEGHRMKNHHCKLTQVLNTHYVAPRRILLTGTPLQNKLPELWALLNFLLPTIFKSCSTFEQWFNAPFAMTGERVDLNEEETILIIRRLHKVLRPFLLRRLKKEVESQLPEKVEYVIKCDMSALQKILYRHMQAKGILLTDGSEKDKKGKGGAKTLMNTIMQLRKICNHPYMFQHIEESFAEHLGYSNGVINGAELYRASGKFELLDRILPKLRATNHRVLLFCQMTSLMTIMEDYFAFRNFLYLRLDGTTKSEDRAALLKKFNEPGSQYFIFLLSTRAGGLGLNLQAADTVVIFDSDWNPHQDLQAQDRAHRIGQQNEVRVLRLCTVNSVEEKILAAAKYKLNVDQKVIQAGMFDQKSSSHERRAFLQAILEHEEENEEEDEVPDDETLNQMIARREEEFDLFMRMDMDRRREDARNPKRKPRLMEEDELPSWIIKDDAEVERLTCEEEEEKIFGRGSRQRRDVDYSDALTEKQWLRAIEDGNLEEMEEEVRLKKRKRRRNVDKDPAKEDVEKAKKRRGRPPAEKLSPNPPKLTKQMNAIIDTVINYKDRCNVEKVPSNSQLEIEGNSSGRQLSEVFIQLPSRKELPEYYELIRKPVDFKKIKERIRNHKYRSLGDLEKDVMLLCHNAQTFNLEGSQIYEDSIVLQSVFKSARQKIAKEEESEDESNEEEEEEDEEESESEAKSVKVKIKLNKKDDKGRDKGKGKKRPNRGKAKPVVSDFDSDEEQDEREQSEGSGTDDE
# T1 sequence (P51532 whole entry): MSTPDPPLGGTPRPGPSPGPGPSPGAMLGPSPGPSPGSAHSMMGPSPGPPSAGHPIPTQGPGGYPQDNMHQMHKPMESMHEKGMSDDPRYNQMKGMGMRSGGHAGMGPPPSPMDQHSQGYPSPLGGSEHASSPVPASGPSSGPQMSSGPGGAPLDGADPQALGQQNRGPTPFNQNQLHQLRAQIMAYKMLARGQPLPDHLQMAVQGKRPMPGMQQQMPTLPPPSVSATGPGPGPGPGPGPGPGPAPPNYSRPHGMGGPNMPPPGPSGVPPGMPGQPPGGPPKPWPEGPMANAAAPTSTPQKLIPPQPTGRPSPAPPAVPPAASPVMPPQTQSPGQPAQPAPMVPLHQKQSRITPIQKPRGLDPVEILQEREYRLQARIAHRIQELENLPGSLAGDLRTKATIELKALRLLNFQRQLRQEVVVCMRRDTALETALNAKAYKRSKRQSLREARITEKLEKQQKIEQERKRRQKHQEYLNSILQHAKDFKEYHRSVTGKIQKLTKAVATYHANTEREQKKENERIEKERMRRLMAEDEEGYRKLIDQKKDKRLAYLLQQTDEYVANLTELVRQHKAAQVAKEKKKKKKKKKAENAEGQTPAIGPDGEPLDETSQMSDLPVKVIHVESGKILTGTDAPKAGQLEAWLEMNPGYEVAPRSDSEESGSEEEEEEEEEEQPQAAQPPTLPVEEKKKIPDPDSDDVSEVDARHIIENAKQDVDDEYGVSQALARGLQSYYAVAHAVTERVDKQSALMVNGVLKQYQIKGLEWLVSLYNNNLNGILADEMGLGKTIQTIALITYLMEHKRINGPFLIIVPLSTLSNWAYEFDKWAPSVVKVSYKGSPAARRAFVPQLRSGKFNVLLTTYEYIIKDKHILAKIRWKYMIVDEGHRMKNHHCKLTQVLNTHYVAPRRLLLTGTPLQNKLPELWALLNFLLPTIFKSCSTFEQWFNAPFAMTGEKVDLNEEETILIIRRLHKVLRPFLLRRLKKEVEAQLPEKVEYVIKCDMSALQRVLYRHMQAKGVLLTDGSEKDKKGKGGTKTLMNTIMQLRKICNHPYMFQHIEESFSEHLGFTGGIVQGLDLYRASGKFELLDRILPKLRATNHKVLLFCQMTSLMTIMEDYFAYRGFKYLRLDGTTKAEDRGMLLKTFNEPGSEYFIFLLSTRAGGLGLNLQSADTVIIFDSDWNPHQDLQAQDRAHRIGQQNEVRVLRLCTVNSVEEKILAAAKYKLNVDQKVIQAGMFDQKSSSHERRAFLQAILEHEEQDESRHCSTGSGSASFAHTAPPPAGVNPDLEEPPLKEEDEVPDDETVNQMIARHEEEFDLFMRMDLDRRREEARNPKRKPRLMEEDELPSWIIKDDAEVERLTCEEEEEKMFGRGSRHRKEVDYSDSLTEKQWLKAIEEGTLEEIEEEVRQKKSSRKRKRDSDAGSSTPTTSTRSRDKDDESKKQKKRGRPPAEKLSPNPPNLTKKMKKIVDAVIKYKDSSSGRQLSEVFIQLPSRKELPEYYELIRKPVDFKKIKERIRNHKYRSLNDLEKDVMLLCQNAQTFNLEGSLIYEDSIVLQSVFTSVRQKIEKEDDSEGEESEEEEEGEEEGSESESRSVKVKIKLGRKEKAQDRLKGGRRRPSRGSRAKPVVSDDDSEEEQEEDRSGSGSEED
Compound,Dmax (SMARCA2) [%],DC50 (SMARCA2) [nM],Dmax (SMARCA4) [%],DC50 (SMARCA4) [nM]
Cc1ncsc1-c1ccc(CNC(=O)[C@@H]2C[C@@H](O)CN2C(=O)[C@@H](NC(=O)c2ccc(CCCCCN3CCC(Cn4cc(-c5cc(-c6ccccc6O)nnc5N)cn4)CC3)cc2)C(C)(C)C)cc1 [I-505],> 90,100 to 500,> 90,100 to 500
Cc1ncsc1-c1ccc(CNC(=O)[C@@H]2C[C@@H](O)CN2C(=O)[C@@H](NC(=O)c2ccc(C#CCCCN3CCC(Cn4cc(-c5cc(-c6ccccc6O)nnc5N)cn4)CC3)cc2)C(C)(C)C)cc1 [I-506],> 90,100 to 500,> 90,< 100
Cc1ncsc1-c1ccc(CNC(=O)[C@@H]2C[C@@H](O)CN2C(=O)[C@@H](NC(=O)c2ccc(-c3ccc(CN4CCC(Cn5cc(-c6cc(-c7ccccc7O)nnc6N)cn5)CC4)cc3)cc2)C(C)(C)C)cc1 [I-507],> 90,< 100,> 90,< 100
Cc1ncsc1-c1ccc(CNC(=O)[C@@H]2C[C@@H](O)CN2C(=O)[C@@H](NC(=O)Cc2ccc(-c3ccc(N4CCC(Cn5cc(-c6cc(-c7ccccc7O)nnc6N)cn5)CC4)cc3)cc2)C(C)(C)C)cc1 [I-508],< 50,> 1000,< 50,> 1000
Cc1ncsc1-c1ccc(CNC(=O)[C@@H]2C[C@@H](O)CN2C(=O)[C@@H](NC(=O)CC2CCC(N3CCC(c4cnc(N5C6CCC5CN(c5cc(-c7ccccc7O)nnc5N)C6)nc4)CC3)CC2)C(C)(C)C)cc1 (some centres unmarked) [I-511],> 90,100 to 500,> 90,< 100
Cc1ncsc1-c1ccc(CNC(=O)[C@@H]2C[C@@H](O)CN2C(=O)[C@@H](NC(=O)CC2CC(N3CCC(c4cnc(N5C6CCC5CN(c5cc(-c7ccccc7O)nnc5N)C6)nc4)CC3)C2)C(C)(C)C)cc1 (some centres unmarked) [I-512],70 to 90,100 to 500,< 50,> 1000
Cc1ncsc1-c1ccc(CNC(=O)[C@@H]2C[C@@H](O)CN2C(=O)[C@@H](NC(=O)Cc2ccc(N3CCC(c4cnc(N5C6CCC5CN(c5cc(-c7ccccc7O)nnc5N)C6)nc4)CC3)cc2)C(C)(C)C)cc1 [I-513],70 to 90,501 to 1000,70 to 90,100 to 500
Cc1ncsc1-c1ccc(CNC(=O)[C@@H]2C[C@@H](O)CN2C(=O)[C@@H](NC(=O)c2ccc(N3CCC(n4cc(-c5cc(-c6ccccc6O)nnc5N)cn4)CC3)cc2)C(C)(C)C)cc1 [I-515],< 50,> 1000,> 90,< 100
Cc1ncsc1-c1ccc(CNC(=O)[C@@H]2C[C@@H](O)CN2C(=O)[C@@H](NC(=O)Cc2ccc(N3CCC(n4cc(-c5cc(-c6ccccc6O)nnc5N)cn4)CC3)cc2)C(C)(C)C)cc1 [I-516],< 50,> 1000,< 50,> 1000
Cc1ncsc1-c1ccc(CNC(=O)[C@@H]2C[C@@H](O)CN2C(=O)[C@@H](NC(=O)C2(F)CC2)C2CCC(N(C)CCCc3cnc(N4C5CCC4CN(c4cc(-c6ccccc6O)nnc4N)C5)nc3)CC2)cc1 (some centres unmarked) [I-518],< 50,> 1000,50 to 70,100 to 500
Cc1cc(-c2scnc2C)ccc1CNC(=O)[C@@H]1C[C@@H](O)CN1C(=O)[C@@H](NC(=O)CN1CCC(c2cnc(N3C4CCC3CN(c3cc(-c5ccccc5O)nnc3N)C4)nc2)CC1)C(C)(C)C [I-521],> 90,100 to 500,> 90,100 to 500
"Nc1nnc(-c2ccccc2O)cc1N1CC2CCC(C1)N2c1ncc(C2CCN(CCCNC(=O)COc3ccc4c(c3)CCCN4C(=O)CCl)CC2)cn1 [I-523, N-[3-[4-[2-[3-[3-amino-6-(2-hydroxyphenyl)pyridazin-4-yl]-3,8-diazabicyclo[3.2.1]octan-8-yl]pyrimidin-5-yl]-1-piperidyl]propyl]-2-[[1-(2-chloroacetyl)-3,4-dihydro-2H-quinolin-6-yl]oxy]acetamide]",< 50,> 1000,> 90,> 1000
Nc1nnc(-c2ccccc2O)cc1N1CC2CCC(C1)N2c1ncc(C2CCN(CCCCCNC(=O)COc3ccc4c(c3)CCCN4C(=O)CCl)CC2)cn1 [I-524],< 50,> 1000,70 to 90,> 1000
Nc1nnc(-c2ccccc2O)cc1N1CC2CCC(C1)N2c1ncc(C2CCN(CCCCCCCCCNC(=O)COc3ccc4c(c3)CCCN4C(=O)CCl)CC2)cn1 [I-525],< 50,> 1000,50 to 70,> 1000
